ChEMBL document CHEMBL1141205, “Design, synthesis, and evaluation of octahydropyranopyrrole-based inhibitors of mammalian ribonucleotide reductase” (Bioorg Med Chem Lett, 2005)
Activity calls are given as the source filed them. The calls are words filed in the database; no cut-off is given here.

Columns and labels:
[1] = biological target: Ribonucleoside-diphosphate reductase RR1 (Homo sapiens) (UniProt P23921+Q7LG56+P31350); assay: (§1) Inhibition of mammalian ribonucleotide reductase (mRR); type: protein-complex assay
[2] = biological target: T1, Ribonucleoside-diphosphate reductase RR1 (Homo sapiens, UniProt P23921+P31350+Q7LG56); assay: as §1; type: protein-complex assay
T1 sequence (P23921 whole entry): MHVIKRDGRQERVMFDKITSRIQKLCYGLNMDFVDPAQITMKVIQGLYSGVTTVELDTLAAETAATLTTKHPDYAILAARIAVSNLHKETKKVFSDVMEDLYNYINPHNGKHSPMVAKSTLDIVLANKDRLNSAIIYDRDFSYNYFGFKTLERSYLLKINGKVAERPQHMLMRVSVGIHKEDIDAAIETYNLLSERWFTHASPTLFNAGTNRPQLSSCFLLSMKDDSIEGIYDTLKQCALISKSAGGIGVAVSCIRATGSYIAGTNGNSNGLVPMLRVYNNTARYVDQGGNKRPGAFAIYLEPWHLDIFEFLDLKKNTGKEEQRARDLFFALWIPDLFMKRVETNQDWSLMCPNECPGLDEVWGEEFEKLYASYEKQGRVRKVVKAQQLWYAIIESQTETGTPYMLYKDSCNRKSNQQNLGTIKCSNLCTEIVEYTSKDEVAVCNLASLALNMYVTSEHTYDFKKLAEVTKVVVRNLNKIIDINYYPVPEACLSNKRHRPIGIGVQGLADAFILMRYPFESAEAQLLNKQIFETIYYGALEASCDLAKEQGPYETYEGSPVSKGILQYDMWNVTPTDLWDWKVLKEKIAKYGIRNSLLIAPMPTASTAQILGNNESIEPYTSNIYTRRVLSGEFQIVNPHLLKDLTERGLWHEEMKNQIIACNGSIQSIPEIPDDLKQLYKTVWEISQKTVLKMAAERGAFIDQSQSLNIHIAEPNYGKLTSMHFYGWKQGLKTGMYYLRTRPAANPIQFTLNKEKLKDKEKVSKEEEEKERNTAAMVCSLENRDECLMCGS
T1 sequence (Q7LG56 whole entry): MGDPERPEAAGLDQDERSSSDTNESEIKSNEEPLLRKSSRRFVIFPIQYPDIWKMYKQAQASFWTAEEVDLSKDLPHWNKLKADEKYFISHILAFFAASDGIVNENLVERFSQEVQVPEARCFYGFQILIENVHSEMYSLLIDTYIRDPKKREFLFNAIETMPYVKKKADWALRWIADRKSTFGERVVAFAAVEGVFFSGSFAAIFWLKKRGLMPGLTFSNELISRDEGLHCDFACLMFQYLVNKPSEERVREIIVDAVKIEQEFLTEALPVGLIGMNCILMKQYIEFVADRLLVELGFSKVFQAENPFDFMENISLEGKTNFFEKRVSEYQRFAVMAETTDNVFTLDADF
T1 sequence (P31350 whole entry): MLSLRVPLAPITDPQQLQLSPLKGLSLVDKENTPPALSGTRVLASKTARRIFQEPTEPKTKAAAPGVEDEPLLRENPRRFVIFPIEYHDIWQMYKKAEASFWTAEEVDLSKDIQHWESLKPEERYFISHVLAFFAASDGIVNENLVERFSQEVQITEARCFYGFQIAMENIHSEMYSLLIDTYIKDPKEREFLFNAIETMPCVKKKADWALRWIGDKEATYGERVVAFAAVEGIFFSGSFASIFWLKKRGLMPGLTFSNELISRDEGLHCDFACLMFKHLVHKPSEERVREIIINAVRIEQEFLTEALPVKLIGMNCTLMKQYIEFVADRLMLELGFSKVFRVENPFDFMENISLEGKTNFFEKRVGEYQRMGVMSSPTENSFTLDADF

Row | Activity [1] | IC50 [2] [µM] | SMILES
1 | Active |  | CC(C)CO[C@@H]1C[C@@H]2[C@@H]([C@@H](COC(=O)CCc3ccccc3)O1)N(CC(=O)N[C@@H](CC(=O)O)C(=O)N[C@@H](Cc1ccccc1)C(=O)O)C[C@H]2O
2 | inactive |  | CC(C)CO[C@@H]1C[C@@H]2[C@@H]([C@@H](COC(=O)COc3ccc4ccccc4c3)O1)N(CC(=O)N[C@@H](CC(=O)O)C(=O)N[C@@H](Cc1ccccc1)C(=O)O)C[C@H]2O

More lines, now with the values behind:

Row | SMILES | Activity [1] | IC50 [2] [µM]
3 | CC(C)CO[C@@H]1CC[C@H](N(C)CC(=O)N[C@@H](CC(=O)O)C(=O)N[C@@H](Cc2ccccc2)C(=O)O)[C@@H](COC(=O)CCc2ccccc2)O1 | inactive | 
4 | CC(C)CO[C@@H]1C[C@@H]2[C@@H]([C@@H](COC(=O)CCC3c4ccccc4-c4ccccc43)O1)N(CC(=O)N[C@@H](CC(=O)O)C(=O)N[C@@H](Cc1ccccc1)C(=O)O)C[C@H]2O |  | 40
5 | CC(C)CO[C@@H]1CC[C@H](N(C)CC(=O)N[C@@H](CC(=O)O)C(=O)N[C@@H](Cc2ccccc2)C(=O)O)[C@@H](COC(=O)CCC2c3ccccc3-c3ccccc32)O1 | inactive | 
